Results taken from PubChem BioAssay (NCI).
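Briefly, cells in 96-well plates were exposed to five compound concentrations for 48 h, and endpoints were estimated by linear interpolation. GI50 marks 50% less growth. TGI denotes the concentration required for complete inhibition of growth.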

Assays:
Assay in all cases: NCI-60 cell line screen, 48 h
A549 NSCLC = system: A549 NSCLC
SR leukemia = system: SR leukemia
HCC-2998 colon = system: HCC-2998 colon
SF-539 CNS = system: SF-539 CNS
UO-31 renal = system: UO-31 renal
OVCAR-4 ovarian = system: OVCAR-4 ovarian
CCRF-CEM leukemia = system: CCRF-CEM leukemia
SNB-19 CNS = system: SNB-19 CNS
SK-MEL-5 melanoma = system: SK-MEL-5 melanoma
KM20L2 colon = system: KM20L2 colon

| Structure (SMILES) | TGI (A549 NSCLC) [µM] | TGI (SR leukemia) [µM] | TGI (HCC-2998 colon) [µM] | TGI (SF-539 CNS) [µM] | TGI (UO-31 renal) [µM] | TGI (OVCAR-4 ovarian) [µM] | TGI (CCRF-CEM leukemia) [µM] | TGI (SNB-19 CNS) [µM] | TGI (SK-MEL-5 melanoma) [µM] | TGI (KM20L2 colon) [µM] | GI50 (A549 NSCLC) [µM] | GI50 (SR leukemia) [µM] | GI50 (HCC-2998 colon) [µM] | GI50 (SF-539 CNS) [µM] | GI50 (UO-31 renal) [µM] | GI50 (OVCAR-4 ovarian) [µM] | GI50 (CCRF-CEM leukemia) [µM] | GI50 (SNB-19 CNS) [µM] | GI50 (SK-MEL-5 melanoma) [µM] |
| --- | --- | --- | --- | --- | --- | --- | --- | --- | --- | --- | --- | --- | --- | --- | --- | --- | --- | --- | --- |
| O=C1OC(c2ccccc2Br)=N/C1=C/c1ccccc1 | > 100 | > 100 | 39.4 | 37.9 | > 100 | > 100 | > 100 | 96.8 | > 100 |  |  |  |  |  |  |  |  |  |  |
| O=C1CCC2COc3ccc(O)c1c32 (configuration not stated) | > 100 |  |  | > 100 |  | > 100 | > 100 | 95.9 | > 100 | > 100 |  |  |  |  |  |  |  |  |  |
| O=c1oc2ccccc2n1P(=O)(Oc1ccc(Cl)cc1)n1c(=O)oc2ccccc21 | > 100 | > 100 | > 100 | > 100 | > 100 | > 100 | > 100 | > 100 | > 100 | > 100 |  |  |  |  |  |  |  |  |  |
| COc1nc(NC2OC(CO)C(O)C(O)C2O)c(N)c(=O)[nH]1 (configuration not stated) | > 100 |  | > 100 | > 100 | > 100 | > 100 | > 100 | > 100 | > 100 | > 100 |  |  |  |  |  |  |  |  |  |
| Nc1ncnc2c1ccn2-c1cccc(NC(=O)c2ccc(N3CCOCC3)c(C(F)(F)F)c2)c1 | 15.2 | 20.7 | 19.6 | 15.4 | 6.73 | 12.5 | 11.8 | 13 | 13.2 |  | 3.41 | 3.38 | 4.6 | 2.39 | 2.8 | 3.57 | 2.07 | 3.96 | 2.56 |
| COC(=O)Cc1c(C2C(CC(=O)OC)c3ccccc3N2C2OC(CO)C(O)C(O)C2O)[nH]c2ccccc12 (configuration not stated) | > 100 | > 100 | > 100 |  | > 100 | > 100 | > 100 | > 100 | > 100 |  |  |  |  |  |  |  |  |  |  |
| CC(C)(C)CI | 73.1 | 76.7 | 37.2 | > 100 | > 10 |  | 50.8 | 89.1 | 30.9 | > 100 |  |  |  |  |  |  |  |  |  |
| CC1OC(CO)(n2cnc3c(N)ncnc32)C(O)C1O (configuration not stated) | > 100 |  | > 100 | > 100 | > 100 | > 100 | > 100 | > 100 | > 100 | > 100 |  |  |  |  |  |  |  |  |  |
| CCCCCCCCCCCCCCCCCCOc1ccccc1COP(=O)(O)OOCC[N+](C)(C)C | 23.6 |  | 1.6 | 3.02 | 6.76 | 9.92 | 2.02 | 7.76 | 1.5 |  | 5.5 |  | 0.787 | 1.19 | 1.27 | 1.33 | 0.751 | 1.44 | 0.813 |
| C#CCNC(=O)CC[C@@H](C)[C@H]1CC[C@H]2[C@@H]3CC[C@@H]4CC(=O)CC[C@]4(C)[C@H]3CC[C@]12C | > 100 | 33.3 | 54.1 | 30.4 | 0.424 | 52.6 | 24.1 | 71 | 23.2 |  | 17.4 | 3.17 | 19.7 | 14.1 | 0.192 | 14.9 | 4.39 | 24.3 | 8.71 |
| NC(CSCSCC(N)C(=O)O)C(=O)O (configuration not stated) | > 225 |  | > 225 | > 225 | > 225 | > 225 | > 71.2 | > 225 | > 225 | > 225 |  |  |  |  |  |  |  |  |  |
